Test results published in paper PMC7079562 (Bioorganic & Medicinal Chemistry, 2016).

Target: SARS-CoV 3CL^pro (Severe acute respiratory syndrome coronavirus, UniProt P0C6X7)
Type: biochemical

Row | SMILES | Inhibitory activity against SARS 3CLpro (in words)
1 | CC1=NN(c2ccccc2)C(=O)/C1=C\c1ccc(-c2cc(Cl)ccc2C(=O)O)o1 [Compound 3e, 4-Chloro-2-(5-((3-methyl-5-oxo-1-phenyl-1,5-dihydro-4H-pyrazol-4-ylidene)methyl)furan-2-yl)benzoic acid] | unable to inhibit
2 | O=C1/C(=C\c2ccc(-c3ccccc3)o2)C(c2ccccc2)=NN1c1ccccc1 [Compound 3j, 2,5-Diphenyl-4-((5-phenylfuran-2-yl)methylene)-2,4-dihydro-3H-pyrazol-3-one] | inactive
3 | CC1=NN(c2cccc(C(=O)O)c2)C(=O)/C1=C\c1ccc(-c2ccccc2)o1 [Compound 3l, 3-(3-Methyl-5-oxo-4-((5-phenylfuran-2-yl)methylene)-4,5-dihydro-1H-pyrazol-1-yl)benzoic acid] | unable to inhibit
